Measurements taken from the supplement of paper PMC10307832.

What was measured:
Assay in all cases: relative viability (nuclei count vs DMSO), 5 days (fraction); higher = more cells survive
Doxorubicin + Linsitinib = compound: COc1cccc2c1C(=O)c1c(O)c3c(c(O)c1C2=O)C[C@@](O)(C(=O)CO)C[C@@H]3O[C@H]1C[C@H](N)[C@H](O)[C@H](C)O1 [Doxorubicin] + C[C@]1(O)C[C@@H](c2nc(-c3ccc4ccc(-c5ccccc5)nc4c3)c3c(N)nccn32)C1 [Linsitinib] (partner 1 µM)
How it was run: (§1)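 Relative viability equals treated-well nuclei counts divided by vehicle-well nuclei counts. Counts came from 4× images of lung cancer cell lines grown in 1536-well plates for 5 days after pin-tool dosing on the day after seeding. Dosing used one drug alone or a fixed anchor-drug dose plus five library-drug doses (not always all listed) in √10 steps, and values are medians of duplicate plates.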

BAY61-3606 + Navitoclax = compound: COC1=C(C=C(C=C1)C2=CC3=NC=CN3C(=N2)NC4=C(C=CC=N4)C(=O)N)OC [BAY61-3606] + CC1(C)CCC(c2ccc(Cl)cc2)=C(CN2CCN(c3ccc(C(=O)NS(=O)(=O)c4ccc(N[C@H](CCN5CCOCC5)CSc5ccccc5)c(S(=O)(=O)C(F)(F)F)c4)cc3)CC2)C1 [Navitoclax] (partner 0.5 µM)
How it was run: as §1

BAY61-3606 + Palbociclib = compound: COC1=C(C=C(C=C1)C2=CC3=NC=CN3C(=N2)NC4=C(C=CC=N4)C(=O)N)OC [BAY61-3606] + CC(=O)c1c(C)c2cnc(Nc3ccc(N4CCNCC4)cn3)nc2n(C2CCCC2)c1=O [Palbociclib] (partner 0.5 µM)
How it was run: as §1

Doxorubicin + Crizotinib = compound: COc1cccc2c1C(=O)c1c(O)c3c(c(O)c1C2=O)C[C@@](O)(C(=O)CO)C[C@@H]3O[C@H]1C[C@H](N)[C@H](O)[C@H](C)O1 [Doxorubicin] + C[C@@H](Oc1cc(-c2cnn(C3CCNCC3)c2)cnc1N)c1c(Cl)ccc(F)c1Cl [Crizotinib] (partner 1 µM)
How it was run: as §1

Row | Cell Line | relative viability (Doxorubicin + Linsitinib; first compound 0.001 µM) | relative viability (Doxorubicin + Linsitinib; first compound 0.003162 µM) | relative viability (Doxorubicin + Linsitinib; first compound 0.01 µM) | relative viability (Doxorubicin + Linsitinib; first compound 0.03162 µM) | relative viability (Doxorubicin + Linsitinib; first compound 0.1 µM) | relative viability (BAY61-3606 + Navitoclax; first compound 0.02 µM) | relative viability (BAY61-3606 + Navitoclax; first compound 0.06325 µM) | relative viability (BAY61-3606 + Navitoclax; first compound 0.2 µM) | relative viability (BAY61-3606 + Navitoclax; first compound 0.6325 µM) | relative viability (BAY61-3606 + Navitoclax; first compound 2 µM) | relative viability (BAY61-3606 + Palbociclib; first compound 0.02 µM) | relative viability (BAY61-3606 + Palbociclib; first compound 0.06325 µM) | relative viability (BAY61-3606 + Palbociclib; first compound 0.2 µM) | relative viability (BAY61-3606 + Palbociclib; first compound 0.6325 µM) | relative viability (BAY61-3606 + Palbociclib; first compound 2 µM) | relative viability (Doxorubicin + Crizotinib; first compound 0.001 µM) | relative viability (Doxorubicin + Crizotinib; first compound 0.003162 µM) | relative viability (Doxorubicin + Crizotinib; first compound 0.01 µM) | relative viability (Doxorubicin + Crizotinib; first compound 0.03162 µM) | relative viability (Doxorubicin + Crizotinib; first compound 0.1 µM)
1 | NCI-H1993 | 0.711 | 0.751 | 0.741 | 0.659 | 0.733 | 0.831 | 0.785 | 0.707 | 0.819 | 0.739 | 0.581 | 0.626 | 0.48 | 0.688 | 0.524 | 1.08 | 0.812 | 0.839 | 0.721 | 0.822
2 | NCI-H2009 | 1.16 | 1.15 | 1.28 | 0.953 | 0.639 | 1.14 | 1.22 | 1.14 | 1.15 | 1.11 | 0.22 | 0.211 | 0.214 | 0.231 | 0.155 | 1.06 | 0.991 | 0.893 | 0.352 | 0.222
3 | NCI-H2023 | 0.642 | 0.62 | 0.549 | 0.279 | 0.102 | 1.03 | 1.05 | 1.07 | 1.02 | 0.873 | 0.393 | 0.401 | 0.397 | 0.423 | 0.283 | 0.598 | 0.679 | 0.36 | 0.0967 | 0.0644
4 | NCI-H2085 | 1.03 | 0.927 | 0.815 | 0.716 | 0.82 | 1.31 | 1.23 | 1.12 | 1.33 | 1.01 | 0.461 | 0.487 | 0.45 | 0.46 | 0.435 | 0.924 | 0.97 | 0.943 | 0.648 | 0.63
5 | NCI-H2087 | 0.789 | 0.912 | 1.14 | 0.892 | 0.98 | 0.896 | 1.06 | 0.981 | 0.922 | 0.82 | 0.234 | 0.264 | 0.221 | 0.28 | 0.249 | 0.795 | 0.952 | 0.923 | 0.661 | 0.666
6 | NCI-H2126 | 0.704 | 0.748 | 0.739 | 0.712 | 0.718 | 0.88 | 0.823 | 0.769 | 0.759 | 0.742 | 0.356 | 0.353 | 0.369 | 0.352 | 0.31 | 1.04 | 1.08 | 0.961 | 1.08 | 1.05
7 | NCI-H2228 | 0.825 | 0.615 | 0.634 | 0.178 | 0.311 | 1.18 | 0.736 | 0.658 | 1.08 | 0.713 | 0.989 | 0.916 | 0.731 | 0.766 | 0.553 | 0.562 | 0.384 | 0.421 | 0.343 | 0.197
